Patent US10947252B2, “Inhibitors of KEAP1-Nrf2 protein-protein interaction” (Janssen Pharmaceutica NV, priority 2018, dated 2021)

Experiments:
[1] = target: Kelch domain of human KEAP1 (321-624 aa) (Homo sapiens (Human), UniProt Q14145); assay: KEAP1 KELCH ThermoFluor binding assay; conditions: KEAP Kelch […], 1,8-ANS, pH 7.0, average of results obtained, read-out: Tf Kd;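 note: Ligand-induced melting temperature shift of E. coli-expressed KEAP1 Kelch protein, Kd estimated from concentration-response curves of ΔTm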
[2] = tested on: Glo-Response ARE-luc2P HEK293 cell line; assay: ARE luciferase reporter cell-based assay; conditions: Homo sapiens, HEK293, 24 h, average of results obtained;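 note: luciferase signal tracks Nrf2 activation of the ARE once compounds disrupt KEAP1-Nrf2 binding, read with One-Glo reagent, DMSO serving as low control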

Kelch domain of human KEAP1 (321-624 aa), sequence (Q14145 321-624): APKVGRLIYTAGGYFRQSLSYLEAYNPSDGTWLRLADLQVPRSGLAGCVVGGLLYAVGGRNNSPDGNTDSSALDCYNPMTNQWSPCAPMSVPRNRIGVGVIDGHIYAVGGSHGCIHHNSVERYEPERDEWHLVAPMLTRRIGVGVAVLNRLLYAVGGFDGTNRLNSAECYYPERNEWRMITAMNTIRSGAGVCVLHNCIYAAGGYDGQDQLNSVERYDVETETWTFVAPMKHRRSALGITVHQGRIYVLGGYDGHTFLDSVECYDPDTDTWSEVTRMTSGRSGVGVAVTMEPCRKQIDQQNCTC

`Cc1c([C@H](CC(=O)O)c2ccc(Cl)c(CN3CC4(COC4)Oc4ncccc4S3(=O)=O)c2)ccn2c(C(F)(F)F)nnc12` (single isomer, unassigned) [Example 87, (*R)-3-(4-Chloro-3-((1′,1′-dioxoidospiro[oxetane-3,4′-pyrido[2,3-b][1,4,5]oxathiazepin]-2′(3′H)-yl)methyl)phenyl)-3-(8-methyl-3-(trifluoromethyl)-[1,2,4]triazolo[4,3-a]pyridine-7-yl)propanoic Acid] gave a Kd [1] of 1.3 nM and an EC50 [2] of 2530 nM.
Compound `Cc1ccc([C@@H](c2ccn3c(C(F)(F)F)nnc3c2C)C(C)(C)C(=O)O)cc1CN1CC2(CCOCC2)Oc2nc(O[C@H](C)CN3CCCCC3)c(C)cc2S1(=O)=O` (single isomer, unassigned) [Example 601, (*S)-2,2-Dimethyl-3-(4-methyl-3-((8′-methyl-1′,1′-dioxido-7′-(((*R)-1-(piperidin-1-yl)propan-2-yl)oxy)-2,3,5,6-tetrahydrospiro[pyran-4,4′-pyrido[2,3-b][1,4,5]oxathiazepin]-2′,(3′H)-yl)methyl)phenyl)-3-(8-methyl-3-(trifluoromethyl)-[1,2,4]triazolo[4,3-a]pyridine-7-yl)propanoic Acid] has a Kd [1] of less than 1 nM and an EC50 [2] of 4.79 nM.
`Cc1ccc([C@@H](c2ccc3c(nnn3CC3CC3)c2C)C(C)(C)C(=O)O)cc1CN1CC2(CCOCC2)Oc2ncccc2S1(=O)=O` (single isomer, unassigned) [Example 428, (S*)-3-(1-(cyclopropylmethyl)-4-methyl-1H-benzo[d][1,2,3]triazol-5-yl)-3-(3-((1′,1′-dioxido-2,3,5,6-tetrahydrospiro[pyran-4,4′-pyrido[2,3-b][1,4,5]oxathiazepin]-2′(3′H)-yl)methyl)-4-methylphenyl)-2,2-dimethylpropanoic Acid] gave a Kd [1] of less than 1 nM and an EC50 [2] of 399 nM.
In the case of `Cc1ccc(C(CC(=O)O)c2ccn3c(C4CC4)nnc3c2C)cc1CN1C[C@H]2CCCN2c2ncccc2S1(=O)=O` (mixture of isomers) [Example 167, (R/S)-3-(3-Cyclopropyl-8-methyl-[1,2,4]triazolo[4,3-a]pyridin-7-yl)-3-(3-(((R)-5,5-dioxido-7a,8,9,10-tetrahydropyrido[2,3-f]pyrrolo[2,1-d][1,2,5]thiadiazepin-6(7H)-yl)methyl)-4-methylphenyl)propanoic Acid], the Kd [1] is reported as less than 1 nM and the EC50 [2] is reported as 1140 nM.
In the case of `CCn1nnc2c(C)c([C@@H](CC(=O)O)c3ccc(C)c(CN4C[C@@H]5CCCN5c5ncccc5S4(=O)=O)c3)ccc21` (single isomer, unassigned) [Example 156, (*S)-3-(3-(((S)-5,5-Dioxido-7a,8,9,10-tetrahydropyrido[2,3-f]pyrrolo[2,1-d][1,2,5]thiadiazepin-6(7H)-yl)methyl)-4-methylphenyl)-3-(1-ethyl-4-methyl-1H-benzo[d][1,2,3]triazol-5-yl)propanoic Acid], the Kd [1] is reported as 2.1 nM and the EC50 [2] is reported as 3.6 nM.
Compound `Cc1ccc([C@@H](CC(=O)O)c2ccn3c(C(F)(F)F)nnc3c2C)cc1CN1C[C@@H]2CCCN2c2ccccc2S1(=O)=O` (single isomer, unassigned) [Example 275, (*R)-3-(3-(((S)-5,5-Dioxido-7a,8,9,10-tetrahydrobenzo[f]pyrrolo[2,1-d][1,2,5]thiadiazepin-6(7H)-yl)methyl)-4-methylphenyl)-3-(8-methyl-3-(trifluoromethyl)-[1,2,4]triazolo[4,3-a]pyridin-7-yl)propanoic Acid] has a Kd [1] of 8.69 nM and an EC50 [2] of 399 nM.
For `Cc1c(C(CC(=O)O)c2ccc(Cl)c(CN3CC4(COC4)Oc4ncccc4S3(=O)=O)c2)ccn2c(C(F)(F)F)nnc12` (centres unmarked) [Example 86, 3-(4-Chloro-3-((1′,1′-dioxoidospiro[oxetane-3,4′-pyrido[2,3-b][1,4,5]oxathiazepin]-2′(3′H)-yl)methyl)phenyl)-3-(8-methyl-3-(trifluoromethyl)-[1,2,4]triazolo[4,3-a]pyridine-7-yl)propanoic Acid], the Kd [1] was 2.4 nM and the EC50 [2] was 6240 nM.
For `Cc1ccc(C(CC(=O)O)c2ccn3c(C(F)(F)F)nnc3c2C)nc1CN1CC2CCCCN2c2ncc(C#N)cc2S1(=O)=O` (centres unmarked) [Example 33, 3-(6-((3-Cyano-5,5-dioxido-7,7a,8,9,10,11-hexahydro-6H-dipyrido[2,1-d:2′,3′-f][1,2,5]thiadiazepin-6-yl)methyl)-5-methylpyridin-2-yl)-3-(8-methyl-3-(trifluoromethyl)-[1,2,4]triazolo[4,3-a]pyridin-7-yl)propanoic Acid], the Kd [1] was less than 1 nM and the EC50 [2] was 30.6 nM.
Compound `Cc1ccc([C@H](CC(=O)O)c2ccn3c(C(F)(F)F)nnc3c2C)cc1CN1CC2(CC2)N(C)c2ncccc2S1(=O)=O` (single isomer, unassigned) [Example 184, (*S)-3-(4-Methyl-3-((5′-methyl-1′,1′-dioxido-5′H-spiro[cyclopropane-1,4′-pyrido[2,3-f][1,2,5]thiadiazepin]-2′(3′H)-yl)methyl)phenyl)-3-(8-methyl-3-(t*rifluoromethyl)-[1,2,4]triazolo[4,3-a]pyridin-7-yl)propanoic Acid] has a Kd [1] of 1.4 nM and an EC50 [2] of 130 nM.
Compound `Cc1ccc([C@@H](CC(=O)O)c2ccn3c(C(F)(F)F)nnc3c2C)nc1CN1C[C@@H]2CCCCN2c2ncc(F)cc2S1(=O)=O` (single isomer, unassigned) [Example 497, (*S)-3-(6-(((*S)-3-Fluoro-5,5-dioxido-7,7a,8,9,10,11-hexahydro-6H-dipyrido[2,1-d:2′,3′-f][1,2,5]thiadiazepin-6-yl)methyl)-5-methylpyridin-2-yl)-3-(8-methyl-3-(trifluoromethyl)-[1,2,4]triazolo[4,3-a]pyridin-7-yl)propanoic Acid] has a Kd [1] of less than 1 nM and an EC50 [2] of 4.47 nM.
`Cc1ccc([C@@H](c2ccn3c(C(F)(F)F)nnc3c2C)C(C)(C)C(=O)O)cc1CN1CC2(CCOCC2)Oc2nc(OCCCOCCCO)ccc2S1(=O)=O` (single isomer, unassigned) [Example 607, (*S)-3-(3-((7′-(3-(3-Hydroxypropoxy)propoxy)-1′,1′-dioxido-2,3,5,6-tetrahydrospiro[pyran-4,4′-pyrido[2,3-b][1,4,5]oxathiazepin]-2′(3′H)-yl)methyl)-4-methylphenyl)-2,2-dimethyl-3-(8-methyl-3-(trifluoromethyl)-[1,2,4]triazolo[4,3-a]pyridin-7-yl)propanoic Acid] was tested, and the Kd [1] was 1360 nM and the EC50 [2] was 7620 nM.
`Cc1c(C(CC(=O)O)c2ccc(Cl)c(CN3CC4CCCCN4c4ncccc4S3(=O)=O)c2)ccn2c(C(F)(F)F)nnc12` (centres unmarked) [Example 83, 3-(4-Chloro-3-(((*S)-5,5-dioxido-7,7a,8,9,10,11-hexahydro-6H-dipyrido[2,1-d:2′,3′-f][1,2,5]thiadiazepin-6-yl)methyl)phenyl)-3-(8-methyl-3-(trifluoromethyl)-[1,2,4]triazolo[4,3-a]pyridine-7-yl)propanoic Acid] showed a Kd [1] of less than 1 nM and an EC50 [2] of 232 nM.
Compound `Cc1cnc([C@@H](c2ccn3c(C(F)(F)F)nnc3c2C)C(C)(C)C(=O)O)cc1CN1CC2(CC2)Oc2nc(OCCN3CCCCC3)c(C)cc2S1(=O)=O` (single isomer, unassigned) [Example 592, (*S)-2,2-Dimethyl-3-(8-methyl-3-(trifluoromethyl)-[1,2,4]triazolo[4,3-a]pyridin-7-yl)-3-(5-methyl-4-((8′-methyl-1′,1′-dioxido-7′-(2-(piperidin-1-yl)ethoxy)spiro[cyclopropane-1,4′-pyrido[2,3-b][1,4,5]oxathiazepin]-2′(3′H)-yl)methyl)pyridin-2-yl)propanoic Acid] has a Kd [1] of less than 1 nM and an EC50 [2] of 17.6 nM.
